pIC50: −log10 of the molar value.

In patent US9850247B2 (Almac Discovery Limited, priority 2013, dated 2017) one finds microsomal CLint and IC50 data, which are given here for 20 compounds.

The nature of series [1]: CLint estimates using human liver microsomes (Method 4). Particulars: pH 7.4, 1 μM compound, read-out: Mics - CLint (HLM CLint). Format: in vitro ADME. Here is the method:
Method 4: Determination of CLint Estimates Using Human liver microsomes Test compounds (final concentration=1 μM; final DMSO concentration=0.1%) were incubated in 0.1 M phosphate buffer pH 7.4 with human liver microsomes (0.5 mg of protein/mL) at 37° C. Reactions were started by addition of NADPH in 0.1 M phosphate buffer pH 7.4 (final concentration 1 mM). 40 μL aliquots were removed at 2, 5, 10, 15, 20, 30, 40 and 50 min. Reactions were quenched in 80 μL of ice-cold methanol. Samples were subsequently frozen overnight then centrifuged at 3500 rpm for 20 min at 4° C. The supernatants were removed and transferred into analytical plates and analysed by LC/MS/MS. LC/MS/MS Method: All samples were analysed on a Waters Acquity I-Class coupled to a Waters Xevo TQD mass spectrometer. A Waters BEH C18 2.1×50 mm 1.7 μm column was used and mobile phases were water and methanol containing 0.1% formic acid as modifier. Analysis was by multiple reaction monitoring and conditions were optimised for each test compound. Data Analyses: From a plot of 1n peak area against time, the gradient of the line is determined. Subsequently, half-life and intrinsic clearance are calculated using the following equations. [formula] [formula] [formula] where V=Incubation volume (μL)/number of cells Method 5: Determination of Kinetic Solubility (in PBS Buffer)

The target in series [2] is T1, Wee-1 kinase (Homo sapiens, UniProt P30291).
T1 construct: purchased Invitrogen PV3817
The series is described as follows: Measurement of Wee-1 kinase activity (ADP-Glo luminescent kit). Format: biochemical. Here is the method:
Method 1: Measurement of Wee-1 Kinase Activity
In the measurement of Wee-1 activity, a commercial peptide Poly(Lys Tyr (4:1)) hydrobromide was purchased from Sigma Aldrich and used as the substrate. Activated Wee-1 kinase was purchased from Invitrogen (PV3817) and an ADP-Glo luminescent kit was purchased from Promega.
All reactions took place in […] volumes in reaction buffer containing 40 mM Tris-HCl and 20 mM magnesium chloride, supplemented with 0.1 mg/mL bovine serum albumin and 2 mM DTT. Compounds were serially diluted in buffer and 5 μL of each concentration pipetted into a white 384 well plate (Sigma Aldrich M6186). A 5 μL aliquot of the Wee-1 enzyme was added to each well and the plate centrifuged for 1 min to ensure mixing of the enzyme and inhibitor.
The plate was incubated at room temperature for 30 minutes before the addition of 2.0 μg/mL of substrate and 30 μM ATP in a 5 μL aliquot. The plate was centrifuged for one minute and incubated for 1 h at RT.
15 µL of ADP-Glo stop reagent was added to each well to quench the reaction and deplete unconverted ATP. The plate was incubated for a further 40 min in the dark at RT.
30 μL of ADP-Glo kinase detection reagent was added to each well, converting ADP to ATP, catalysing the generation of luciferin by luciferase. The plate was shaken for 1 min, and incubated in the dark for an additional hour.
Luminescence from each well was detected using the Biotek Synergy4 HD plate reader and the percentage inhibition of kinase activity calculated for each inhibitor tested. Positive (kinase only) and negative (no kinase) controls were added to each plate to ensure specific interaction of kinase and inhibitor. The IC50 concentration for each inhibitor was calculated by plotting the percentage kinase inhibition against concentration of inhibitor and the curve generated by non-linear regression fitting.
For orientation: ADP-Glo first removes unused ATP, then detects ADP through luciferase.

T1 sequence (P30291 whole entry): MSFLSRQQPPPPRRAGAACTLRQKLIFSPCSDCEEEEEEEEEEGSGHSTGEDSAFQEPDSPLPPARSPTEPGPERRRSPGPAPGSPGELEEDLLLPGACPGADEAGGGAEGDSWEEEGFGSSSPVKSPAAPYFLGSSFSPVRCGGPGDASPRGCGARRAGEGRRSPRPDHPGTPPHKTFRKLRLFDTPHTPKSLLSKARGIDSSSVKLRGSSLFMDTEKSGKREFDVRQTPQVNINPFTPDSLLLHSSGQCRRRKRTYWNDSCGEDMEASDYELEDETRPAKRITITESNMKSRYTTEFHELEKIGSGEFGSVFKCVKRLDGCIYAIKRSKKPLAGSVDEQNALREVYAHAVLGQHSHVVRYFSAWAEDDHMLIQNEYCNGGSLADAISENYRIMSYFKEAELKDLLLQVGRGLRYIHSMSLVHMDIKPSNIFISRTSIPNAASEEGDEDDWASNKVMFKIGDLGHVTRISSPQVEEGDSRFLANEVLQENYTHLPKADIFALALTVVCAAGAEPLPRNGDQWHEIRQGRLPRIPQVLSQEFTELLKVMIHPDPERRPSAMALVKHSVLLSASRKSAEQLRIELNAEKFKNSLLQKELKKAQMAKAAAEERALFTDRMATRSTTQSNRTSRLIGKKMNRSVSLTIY

On to `CN1CC2CN(c3ccc(Nc4ncc5c(n4)N(C)CN(c4c(Cl)cccc4Cl)C5=O)cc3)CC2C1` (stereo not shown) [Example 35, 3-(2,6-dichlorophenyl)-1-methyl-7-((4-(5-methylhexahydropyrrolo[3,4-c]pyrrol-2(1H)-yl)phenyl)amino)-2,3-dihydropyrimido[4,5-d]pyrimidin-4(1H)-one], for which the microsomal CLint at 1 μM in series [1] was 15 to 50 µL/min/mg. Further, in series [2], the negative-log IC50 (pIC50) (as a rule, the negative decadic logarithm of the IC50, by convention in mol/L) is 7.00 to 8.00.
Turning to `CCN1CCN(c2ccc(Nc3ncc4c(n3)N(C)CN(c3ccccc3Cl)C4=O)cc2CO)CC1` [Example 113, 3-(2-chlorophenyl)-7-((4-(4-ethylpiperazin-1-yl)-3-(hydroxymethyl)phenyl)amino)-1-methyl-2,3-dihydropyrimido[4,5-d]pyrimidin-4(1H)-one], the microsomal CLint at 1 μM in series [1] was 15 to 50 µL/min/mg. In addition, the negative-log IC50 (pIC50) in series [2] was 7.00 to 8.00.
For the compound `CNCc1cc(Nc2ncc3c(n2)N(C)CN(c2c(Cl)cccc2Cl)C3=O)ccc1-c1cccnc1` [Example 156, 3-(2,6-dichlorophenyl)-1-methyl-7-((3-((methylamino)methyl)-4-(pyridin-3-yl)phenyl)amino)-2,3-dihydropyrimido[4,5-d]pyrimidin-4(1H)-one], the microsomal CLint at 1 μM in series [1] is 15 to 50 µL/min/mg. Besides, the pIC50 in series [2] is 7.00 to 8.00.
For `COCc1cc(Nc2ncc3c(n2)N(C)CN(c2c(Cl)cccc2Cl)C3=O)ccc1N1CCN(C)[C@H](C)C1` [Example 67, (R)-3-(2,6-dichlorophenyl)-7-((4-(3,4-dimethylpiperazin-1-yl)-3-(methoxymethyl)phenyl)amino)-1-methyl-2,3-dihydropyrimido[4,5-d]pyrimidin-4(1H)-one] the same measures were not above 15 µL/min/mg and 7.00 to 8.00.
As for `CN1CN(c2c(Cl)cccc2Cl)C(=O)c2cnc(Nc3ccc(N4CCN(C)[C@@H](CO)C4)cc3)nc21` [Example 34, (R)-3-(2,6-dichlorophenyl)-7-((4-(3-(hydroxymethyl)-4-methylpiperazin-1-yl)phenyl)amino)-1-methyl-2,3-dihydropyrimido[4,5-d]pyrimidin-4(1H)-one], the microsomal CLint at 1 μM in series [1] was 15 to 50 µL/min/mg. For the same compound, the pIC50 in series [2] was 7.00 to 8.00.
Turning to `CN1CN(c2ccccc2Cl)C(=O)c2cnc(Nc3ccc(N4CCNC(C)(C)C4)cc3)nc21` [Example 106, 3-(2-chlorophenyl)-7-((4-(3,3-dimethylpiperazin-1-yl)phenyl)amino)-1-methyl-2,3-dihydropyrimido[4,5-d]pyrimidin-4(1H)-one], in series [1], the microsomal CLint at 1 μM is not above 15 µL/min/mg. Further, the negative logarithm of the IC50 (pIC50) in series [2] is 7.00 to 8.00.
For the compound `Cc1cccc(Cl)c1N1CN(C)c2nc(Nc3ccc(N4C[C@H](C)NC[C@H]4C)cc3)ncc2C1=O` [Example 102, 3-(2-chloro-6-methylphenyl)-7-((4-((2R,5S)-2,5-dimethylpiperazin-1-yl)phenyl)amino)-1-methyl-2,3-dihydropyrimido[4,5-d]pyrimidin-4(1H)-one], the microsomal CLint at 1 μM in series [1] is not above 15 µL/min/mg. For the same compound, in series [2], the pIC50 was 7.00 to 8.00.
For `CN1CN(c2c(Cl)cccc2Cl)C(=O)c2cnc(Nc3ccc(N4CCN(C)[C@H](CO)C4)cc3)nc21` [Example 49, (S)-3-(2,6-dichlorophenyl)-7-((4-(3-(hydroxymethyl)-4-methylpiperazin-1-yl)phenyl)amino)-1-methyl-2,3-dihydropyrimido[4,5-d]pyrimidin-4(1H)-one] the same measures were 15 to 50 µL/min/mg and 7.00 to 8.00.
Taken in the same sequence, the figures for `CN1CN(c2ccccc2Cl)C(=O)c2cnc(Nc3ccc(N4CC5CCC(C4)N5C)c(CO)c3)nc21` [Example 97, 3-(2-chlorophenyl)-7-((3-(hydroxymethyl)-4-(8-methyl-3,8-diazabicyclo[3.2.1]octan-3-yl)phenyl)amino)-1-methyl-2,3-dihydropyrimido[4,5-d]pyrimidin-4(1H)-one] were not above 15 µL/min/mg and 7.00 to 8.00.
Turning to `CN1CN(c2c(Cl)cccc2Cl)C(=O)c2cnc(Nc3ccc(N4CCOCC4)cc3)nc21` [Example 41, 3-(2,6-dichlorophenyl)-1-methyl-7-((4-morpholinophenyl)amino)-2,3-dihydropyrimido[4,5-d]pyrimidin-4(1H)-one], in series [1], the microsomal CLint at 1 μM is 15 to 50 µL/min/mg. Further, the pIC50 in series [2] was 7.00 to 8.00.
As for `CN1CN(c2c(Cl)cccc2Cl)C(=O)c2cnc(Nc3ccc(N4C[C@@H]5C[C@H]4CN5C)cc3)nc21` [Example 44, 3-(2,6-dichlorophenyl)-1-methyl-7-((4-((1S,4S)-5-methyl-2,5-diazabicyclo[2.2.1]heptan-2-yl)phenyl)amino)-2,3-dihydropyrimido[4,5-d]pyrimidin-4(1H)-one], in series [1], the microsomal CLint at 1 μM is not above 15 µL/min/mg. The negative-log IC50 (pIC50) in series [2] is 7.00 to 8.00.
For `CN1CN(c2c(Cl)cccc2Cl)C(=O)c2cnc(Nc3ccc(N4CCS(=O)(=O)CC4)cc3)nc21` [Example 42, 3-(2,6-dichlorophenyl)-7-((4-(1,1-dioxidothiomorpholino)phenyl)amino)-1-methyl-2,3-dihydropyrimido[4,5-d]pyrimidin-4(1H)-one], in series [1], the microsomal CLint at 1 μM is 15 to 50 µL/min/mg. In series [2], the pIC50 was 7.00 to 8.00.
For the compound `CC(=O)NCc1cc(Nc2ncc3c(n2)N(C)CN(c2c(Cl)cccc2Cl)C3=O)ccc1N1CCNCC1` [Example 145, N-(5-((6-(2,6-dichlorophenyl)-8-methyl-5-oxo-5,6,7,8-tetrahydropyrimido[4,5-d]pyrimidin-2-yl)amino)-2-(piperazin-1-yl)benzyl)acetamide], in series [1], the microsomal CLint at 1 μM was not above 15 µL/min/mg. For the same compound, the negative-log IC50 (pIC50) in series [2] is 7.00 to 8.00.
As for `COC[C@@H]1CN(c2ccc(Nc3ncc4c(n3)N(C)CN(c3c(Cl)cccc3Cl)C4=O)cc2)CCN1C` [Example 66, (S)-3-(2,6-dichlorophenyl)-7-((4-(3-(methoxymethyl)-4-methylpiperazin-1-yl)phenyl)amino)-1-methyl-2,3-dihydropyrimido[4,5-d]pyrimidin-4(1H)-one], the microsomal CLint at 1 μM in series [1] was 15 to 50 µL/min/mg. In addition, the negative logarithm of the IC50 (pIC50) in series [2] was 7.00 to 8.00.
Take `C[C@@H]1CN(c2ccc(Nc3ncc4c(n3)N(C)CN(c3c(Cl)cccc3Cl)C4=O)cc2)[C@H](C)CN1` [Example 79, 3-(2,6-dichlorophenyl)-7-((4-((2R,5R)-2,5-dimethylpiperazin-1-yl)phenyl)amino)-1-methyl-2,3-dihydropyrimido[4,5-d]pyrimidin-4(1H)-one]: the microsomal CLint at 1 μM in series [1] is 15 to 50 µL/min/mg. Further, in series [2], the negative logarithm of the IC50 (pIC50) is 7.00 to 8.00.
Take `CN1CN(c2c(Cl)cccc2Cl)C(=O)c2cnc(Nc3ccc(N4CCN(CCO)CC4)cc3)nc21` [Example 116, 3-(2,6-dichlorophenyl)-7-((4-(4-(2-hydroxyethyl)piperazin-1-yl)phenyl)amino)-1-methyl-2,3-dihydropyrimido[4,5-d]pyrimidin-4(1H)-one]: the microsomal CLint at 1 μM in series [1] was 15 to 50 µL/min/mg. In series [2], the pIC50 was 7.00 to 8.00.
Regarding `CN1CN(c2c(Cl)cccc2Cl)C(=O)c2cnc(Nc3ccc(N4CCN(C5CC5)CC4)cc3)nc21` [Example 115, 7-((4-(4-cyclopropylpiperazin-1-yl)phenyl)amino)-3-(2,6-dichlorophenyl)-1-methyl-2,3-dihydropyrimido[4,5-d]pyrimidin-4(1H)-one], the microsomal CLint at 1 μM in series [1] is 15 to 50 µL/min/mg. In series [2], the negative-log IC50 (pIC50) was not above 7.00.
For `C[C@@H]1CN(c2ccc(Nc3ncc4c(n3)N(C)CN(c3ccccc3Cl)C4=O)cc2)[C@@H](C)CN1` [Example 111, 3-(2-chlorophenyl)-7-((4-((2S,5R)-2,5-dimethylpiperazin-1-yl)phenyl)amino)-1-methyl-2,3-dihydropyrimido[4,5-d]pyrimidin-4(1H)-one], the microsomal CLint at 1 μM in series [1] was not above 15 µL/min/mg. Further, the pIC50 in series [2] was 7.00 to 8.00.
As to `CCN1CCN(c2ccc(Nc3ncc4c(n3)N(C)CN(c3c(Cl)cccc3Cl)C4=O)cc2)CC1` [Example 122, 3-(2,6-dichlorophenyl)-7-((4-(4-ethylpiperazin-1-yl)phenyl)amino)-1-methyl-2,3-dihydropyrimido[4,5-d]pyrimidin-4(1H)-one], the microsomal CLint at 1 μM in series [1] was 15 to 50 µL/min/mg. Further, the pIC50 in series [2] is 7.00 to 8.00.
For `CN1CN(c2c(Cl)cccc2Cl)C(=O)c2cnc(Nc3ccc(N4CCCCC4)c(CO)c3)nc21` [Example 131, 3-(2,6-dichlorophenyl)-7-((3-(hydroxymethyl)-4-(piperidin-1-yl)phenyl)amino)-1-methyl-2,3-dihydropyrimido[4,5-d]pyrimidin-4(1H)-one], the microsomal CLint at 1 μM in series [1] was not below 50 µL/min/mg. The pIC50 in series [2] was not above 7.00.
